Source: PubChem BioAssay AID1259407 (Chemical Carcinogenesis Research Information System (CCRIS), 2018)
Activity calls are given as the source filed them. How the calls were made is not given here.

Tested on: CCRIS mutagenicity, Ames/micronucleus/aberration tests
Assay: CCRIS mutagenicity studies
Conditions: Test System: AMES SALMONELLA TYPHIMURIUM

| Structure (SMILES) | mutagenic call (Strain/Indicator: TA98, Metabolic Activation: NONE) | mutagenic call (Strain/Indicator: TA98, Metabolic Activation: RAT, LIVER, S-9, AROCLOR 1254) | mutagenic call (Strain/Indicator: TA100, Metabolic Activation: NONE) | mutagenic call (Strain/Indicator: TA100, Metabolic Activation: RAT, LIVER, S-9, AROCLOR 1254) | mutagenic call (Strain/Indicator: TA102, Metabolic Activation: NONE) | mutagenic call (Strain/Indicator: TA102, Metabolic Activation: RAT, LIVER, S-9, AROCLOR 1254) | mutagenic call (Strain/Indicator: TA1535, Metabolic Activation: NONE) | mutagenic call (Strain/Indicator: TA1535, Metabolic Activation: RAT, LIVER, S-9, AROCLOR 1254) | mutagenic call (Strain/Indicator: TA1537, Metabolic Activation: NONE) | mutagenic call (Strain/Indicator: TA1537, Metabolic Activation: RAT, LIVER, S-9, AROCLOR 1254) | mutagenic call (Strain/Indicator: TA100, Metabolic Activation: NONE, Method: PREINCUBATION) |
| --- | --- | --- | --- | --- | --- | --- | --- | --- | --- | --- | --- |
| CCSC(=O)N1CCCCCC1 | inactive; negative | inactive; negative | inactive; negative | inactive; negative | inactive; negative | inactive; negative | inactive; negative | inactive; negative | inactive; negative | inactive; negative | – |
| CCOC(=O)N(CCCC(=O)c1cccnc1)N=O | – | – | – | – | – | – | – | – | – | – | active; positive |
